In patent US8357717B2, “Spiro group-containing amide compounds having bradykinin 1 receptor (B1R) activity” (Gruenenthal GmbH, priority 2009, dated 2013):

Molecular target: T1, B1R receptor of the rat (rB1R) (Rattus norvegicus, UniProt P97583)
T1 construct: expressed in transfected cells; host or cells: CHO K1 cells, stably transfected
T1 sequence (P97583 1-337): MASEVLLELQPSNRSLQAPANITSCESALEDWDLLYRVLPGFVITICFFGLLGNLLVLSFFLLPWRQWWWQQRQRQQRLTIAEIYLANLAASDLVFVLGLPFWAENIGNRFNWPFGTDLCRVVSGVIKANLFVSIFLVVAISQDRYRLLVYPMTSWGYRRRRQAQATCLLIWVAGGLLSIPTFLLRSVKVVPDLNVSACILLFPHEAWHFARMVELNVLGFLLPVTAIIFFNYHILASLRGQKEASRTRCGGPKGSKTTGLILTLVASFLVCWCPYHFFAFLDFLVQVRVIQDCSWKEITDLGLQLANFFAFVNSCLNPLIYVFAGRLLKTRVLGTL
Test: FLIPR Ca2+ functional study on bradykinin receptor 1, rB1R cells (CHO K1)
Format: cell-based
Conditions: 10 μM test substance; CHO K1 cells with rat B1R; agonist Des-Arg9-bradykinin at EC80; read-out: B1R antagonism, rat [10 μM] % inhibition
Experimental: The agonistic or antagonistic activity of substances can be quantified on the bradykinin receptor 1 (B1R) of the species human and rat using ectopically expressing cell lines (CHO K1 cells) and with the aid of a Ca^2+-sensitive dye (Fluo-4) using a fluorescent imaging plate reader (FLIPR). The indication in % activation is based on the Ca^2+ signal after addition of Lys-Des-Arg^9-bradykinin (0.5 nM) or Des-Arg^9-bradykinin (100 nM). Antagonists lead to suppression of the Ca^2+ influx after the addition of the agonist. % Inhibition compared with the maximum achievable inhibition is indicated.
The agonistic or antagonistic activity of substances can be determined on the bradykinin receptor 1 (B1R) of the species human and rat using the following assay. According to this assay, the Ca^2+ influx through the channel is quantified with the aid of a Ca^2+-sensitive dye (Fluo-4 type, Molecular Probes Europe BV, Leiden, Netherlands) using a Fluorescent Imaging Plate Reader (FLIPR, Molecular Devices, Sunnyvale, USA).
Chinese hamster ovary cells (CHO K1 cells) which have been stably transfected with the human B1R gene (hB1R cells) or with the B1R gene of the rat (rB1R cells) are used. For functional studies, the cells are plated out on black 96-well plates having a clear base (BD Biosciences, Heidelberg, Germany or Greiner, Frickenhausen, Germany) in a density of 20,000-35,000 cells/well. The cells are left overnight at 37° C. and with 5% CO2 in culture medium (hB1R cells: Nutrient Mixture Ham's F12, Gibco Invitrogen GmbH, Karlsruhe, Germany or DMEM, Sigma-Aldrich, Taufkirchen, Germany; rB1R cells: D-MEM/F12, Gibco Invitrogen GmbH, Karlsruhe, Germany), with 10 vol. % FBS (fetal bovine serum, Gibco Invitrogen GmbH, Karlsruhe, Germany or PAN Biotech GmbH, Aidenbach, Germany). On the following day, the cells are loaded for 60 minutes at 37° C. with 2.13 μM Fluo-4 (Molecular Probes Europe BV, Leiden, Netherlands) in HBSS buffer (Hank's buffered saline solution, Gibco Invitrogen GmbH, Karlsruhe, Germany) […] (Sigma-Aldrich, Taufkirchen, Germany) and 10 mM HEPES (Sigma-Aldrich, Taufkirchen, Germany). The plates are then washed twice with HBSS buffer, and HBSS buffer additionally containing 0.1% BSA (bovine serum albumin; Sigma-Aldrich, Taufkirchen, Germany), 5.6 mM glucose and 0.05% gelatin (Merck KGaA, Darmstadt, Germany) is added to the plates. After incubation for a further 20 minutes at room temperature, the plates are inserted into the FLIPR for Ca^2+ measurement. Alternatively, washing is carried out with buffer A (15 mM HEPES, 80 mM NaCl, 5 mM KCl, 1.2 mM CaCl2, 0.7 mM MgSO4, 2 g/l glucose, 2.5 mM probenecid) followed by loading with buffer A with added 2.5 μM Fluo-4 and 0.025% Pluronic F127 (Sigma-Aldrich, Taufkirchen, Germany). The cells are then washed twice with buffer A and incubated for 30 minutes at room temperature with buffer A additionally containing 0.05% BSA and 0.05% gelatin and are then inserted into the FLIPR for Ca^2+ measurement. The Ca^2+-dependent fluorescence is measured before and after the addition of substances (λex=488 nm, λem=540 nm). Quantification is carried out by measuring the highest fluorescence intensity (FC, fluorescence counts) over time.
The FLIPR protocol consists of two substance additions. Test substances (10 μM) are first pipetted onto the cells and the Ca^2+ influx is compared with the control (hB1R: Lys-Des-Arg^9-bradykinin >=50 nM; rB1R: Des-Arg^9-bradykinin 10 μM). This gives the activation in %, based on the Ca^2+ signal after addition of Lys-Des-Arg^9-bradykinin (>=50 nM) or Des-Arg^9-bradykinin (10 μM). After 10-20 minutes' incubation, Lys-Des-Arg^9-bradykinin (hB1R) or Des-Arg^9-bradykinin (rB1R) is applied in the concentration of the EC80, and the influx of Ca^2+ is likewise determined. Antagonists lead to suppression of the Ca^2+ influx. The % inhibition compared with the maximum achievable inhibition is calculated. […]

| Structure (SMILES) | inhibition at 10 µM [%] |
| --- | --- |
| O=C(c1ccc2c(c1)N(C(=O)c1ccccc1Cl)CC2)N1CCC2(CC1)CCN(c1ccncc1)CC2 [G_CC-009, (1-(2-Chlorobenzoyl)indolin-6-yl)(9-(pyridin-4-yl)-3,9-diazaspiro[5.5]undecan-3-yl)methanone] | 78 |
| O=C(c1ccc2c(c1)CN(C(=O)c1ccccc1Cl)C2)N1CCC2(CC1)CCN(Cc1ccc(F)cc1)C2=O [G_CC-018, 8-(2-(2-Chlorobenzoyl)isoindoline-5-carbonyl)-2-(4-fluorobenzyl)-2,8-diazaspiro[4.5]decan-1-one] | 51 |
| COc1cc(C)c(S(=O)(=O)N2CCCc3ccc(C(=O)N4CCC5(CC4)C(=O)N(C)CC5c4ccc(F)cc4)cc32)c(C)c1 (stereo not drawn) [G_CC-025, 4-(4-Fluorophenyl)-8-(1-(4-methoxy-2,6-dimethylphenylsulfonyl)-1,2,3,4-tetrahydroquinoline-7-carbonyl)-2-methyl-2,8-diazaspiro[4.5]decan-1-one] | 51 |
| COc1cc(C)c(S(=O)(=O)N2CCc3ccc(C(=O)N4CCC5(CC4)CCN(Cc4ccc(F)cc4)C5=O)cc3C2)c(C)c1 [G_CC-039, 2-(4-Fluorobenzyl)-8-(2-(4-methoxy-2,6-dimethylphenylsulfonyl)-1,2,3,4-tetrahydroisoquinoline-7-carbonyl)-2,8-diazaspiro[4.5]decan-1-one] | 71 |
| COc1cc(C)c(S(=O)(=O)N2CCc3ccc(C(=O)N4CCC5(CC4)C(=O)NCN5c4ccccc4)cc3C2)c(C)c1 [G_CC-043, 8-(2-(4-Methoxy-2,6-dimethylphenylsulfonyl)-1,2,3,4-tetrahydroisoquinoline-7-carbonyl)-1-phenyl-1,3,8-triazaspiro[4.5]decan-4-one] | 74 |

Further lines, results first:

| inhibition at 10 µM [%] | Structure (SMILES) |
| --- | --- |
| 71 | COc1cc(C)c(S(=O)(=O)N2CCc3ccc(C(=O)N4CCC5(CC4)CCN(Cc4ccc(F)cc4)C5=O)cc32)c(C)c1 [G_CC-006, 2-(4-Fluorobenzyl)-8-(1-(4-methoxy-2,6-dimethylphenylsulfonyl)indoline-6-carbonyl)-2,8-diazaspiro[4.5]decan-1-one] |
| 59 | COc1cc(C)c(S(=O)(=O)N2CCc3ccc(C(=O)N4CCC5(CCN(Cc6ccccc6)C5)C4)cc32)c(C)c1 (stereo not drawn) [G_CC-007, (7-Benzyl-2,7-diazaspiro[4.4]nonan-2-yl)(1-(4-methoxy-2,6-dimethylphenylsulfonyl)indoline-6-yl)methanone] |
| 100 | COc1cc(C)c(S(=O)(=O)N2CCc3ccc(C(=O)N4CCC5(CC4)CCN(c4ccncc4)CC5)cc32)c(C)c1 [G_CC-008, (1-(4-Methoxy-2,6-dimethylphenylsulfonyl)indolin-6-yl)(9-(pyridin-4-yl)-3,9-diazaspiro[5.5]undecan-3-yl)methanone] |
| 58 | COc1cc(C)c(S(=O)(=O)N2CCCc3ccc(C(=O)N4CCC5(CC4)CCN(Cc4ccccc4)C5=O)cc32)c(C)c1 [G_CC-026, 2-Benzyl-8-(1-(4-methoxy-2,6-dimethylphenylsulfonyl)-1,2,3,4-tetrahydroquinoline-7-carbonyl)-2,8-diazaspiro[4.5]decan-1-one] |
| 58 | COc1cc(C)c(S(=O)(=O)N2CCCc3ccc(C(=O)N4CCC5(CCN(Cc6ccccc6)C5)C4)cc32)c(C)c1 (stereo not drawn) [G_CC-027, (7-Benzyl-2,7-diazaspiro[4.4]nonan-2-yl)(1-(4-methoxy-2,6-dimethylphenylsulfonyl)-1,2,3,4-tetrahydroquinolin-7-yl)methanone] |
| 70 | COc1cc(C)c(S(=O)(=O)N2CCc3ccc(C(=O)N4CCC5(CC4)CCN(Cc4ccccc4)C5=O)cc3C2)c(C)c1 [G_CC-040, 2-Benzyl-8-(2-(4-methoxy-2,6-dimethylphenylsulfonyl)-1,2,3,4-tetrahydroisoquinoline-7-carbonyl)-2,8-diazaspiro[4.5]decan-1-one] |
| 64 | COc1cc(C)c(S(=O)(=O)N2CCc3ccc(C(=O)N4CCC5(CCN(Cc6ccccc6)C5)C4)cc3C2)c(C)c1 (stereo not drawn) [G_CC-041, (7-Benzyl-2,7-diazaspiro[4.4]nonan-2-yl)(2-(4-methoxy-2,6-dimethylphenylsulfonyl)-1,2,3,4-tetrahydroisoquinolin-7-yl)methanone] |
